# Test results: ChEMBL document CHEMBL1201862, “PubChem BioAssay data set” (2004)
#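 48-hour exposure; five concentrations; linearly interpolated endpoints. Abbreviation: GI50, concentration required for 50% inhibition of growth.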 The source made the active and inactive calls. Cut-off read from the data, not from the text of the source: active = GI50 up to about 1.1 µM and inactive = higher.
# Tests used:
# Test in all cases: inhibition of tumour cell growth, NCI panel, 48 h
# [1] = system: EKVX
# [2] = system: HL-60
# [3] = system: K562
# [4] = system: KM12
# [5] = system: M14
# [6] = system: MDA-MB-231
# [7] = system: OVCAR-8
# [8] = system: SF-268
# [9] = system: SK-MEL-28
# [10] = system: SN12C
# [11] = system: SNB-19
# [12] = system: T47D
# [13] = system: IGROV-1
# [14] = system: LOX IMVI
# [15] = system: SK-OV-3
Structure (SMILES),GI50 [1],GI50 [2],GI50 [3],GI50 [4],GI50 [5],GI50 [6],GI50 [7],GI50 [8],GI50 [9],GI50 [10],GI50 [11],GI50 [12],GI50 [13],GI50 [14],GI50 [15]
CC(C)C1=CC23CCC4C(C)(C(=O)O)CCCC4(C)C2CC1C1C(=O)N(CCCCCCN2C(=O)C4C5CC6C7(C)CCCC(C)(C(=O)O)C7CCC6(C=C5C(C)C)C4C2=O)C(=O)C13 (stereo not given),7.4 µM (inactive),13.5 µM (inactive),16.6 µM (inactive),11.4 µM (inactive),11 µM (inactive),15.3 µM (inactive),9.2 µM (inactive),13.4 µM (inactive),11.3 µM (inactive),14 µM (inactive),10.5 µM (inactive),21.1 µM (inactive),,,
CC(=O)/C(=C/N1CCNC1=S)C(=O)Nc1ccccc1C,> 100 µM (inactive),,> 100 µM (inactive),> 100 µM (inactive),> 100 µM (inactive),> 100 µM (inactive),> 100 µM (inactive),> 100 µM (inactive),> 100 µM (inactive),> 100 µM (inactive),> 100 µM (inactive),> 100 µM (inactive),> 100 µM (inactive),> 100 µM (inactive),> 100 µM (inactive)
O=C(/C=C/c1cccs1)c1ccc(C(=O)/C=C/c2cccs2)cc1,> 100 µM (inactive),,,> 100 µM (inactive),> 100 µM (inactive),> 100 µM (inactive),> 100 µM (inactive),> 100 µM (inactive),> 100 µM (inactive),> 100 µM (inactive),> 100 µM (inactive),> 100 µM (inactive),> 100 µM (inactive),,> 100 µM (inactive)
CCCCCC(=O)OCC1(CO)C/C(=C\CC(C(C)C)C(C)C)C(=O)O1 (stereo not given),> 100 µM (inactive),,24.1 µM (inactive),39.6 µM (inactive),> 100 µM (inactive),> 100 µM (inactive),38.1 µM (inactive),> 100 µM (inactive),59.3 µM (inactive),31.6 µM (inactive),> 100 µM (inactive),> 100 µM (inactive),65.8 µM (inactive),27 µM (inactive),> 100 µM (inactive)
CCN(CC)Cc1sc2nc3ccccc3n2c1-c1ccc(OC)cc1,27.6 µM (inactive),20.9 µM (inactive),3.22 µM (inactive),20.6 µM (inactive),25.6 µM (inactive),60.4 µM (inactive),36.9 µM (inactive),24.3 µM (inactive),22.7 µM (inactive),,27.1 µM (inactive),,25.5 µM (inactive),28.3 µM (inactive),27 µM (inactive)
CC[C@@]1(N(C)C)C(=O)OCc2c1cc1n(c2=O)Cc2cc3ccccc3nc2-1,45.9 µM (inactive),,> 100 µM (inactive),> 100 µM (inactive),> 100 µM (inactive),96.6 µM (inactive),16.9 µM (inactive),17.3 µM (inactive),> 100 µM (inactive),,29.4 µM (inactive),18.9 µM (inactive),,17.1 µM (inactive),18.7 µM (inactive)
COc1cc(C2c3cc4c(cc3OC(Nc3ccccc3)C2C)OCO4)cc(OC)c1O (stereo not given),,1.92 µM (inactive),1.97 µM (inactive),4.41 µM (inactive),15.5 µM (inactive),4.33 µM (inactive),4.75 µM (inactive),7.48 µM (inactive),5.57 µM (inactive),4.66 µM (inactive),10.6 µM (inactive),15.8 µM (inactive),4.55 µM (inactive),,
c1ccc2c(CSCc3cccc4ccccc34)cccc2c1,46.8 µM (inactive),,76.7 µM (inactive),> 100 µM (inactive),> 100 µM (inactive),> 100 µM (inactive),> 100 µM (inactive),> 100 µM (inactive),> 100 µM (inactive),> 100 µM (inactive),> 100 µM (inactive),53.6 µM (inactive),38.5 µM (inactive),> 100 µM (inactive),
O=c1[nH]nc(Cc2ccccc2)n1/N=C/c1ccc([N+](=O)[O-])cc1,> 100 µM (inactive),> 100 µM (inactive),> 100 µM (inactive),> 100 µM (inactive),,> 100 µM (inactive),> 100 µM (inactive),> 100 µM (inactive),> 100 µM (inactive),> 100 µM (inactive),,> 100 µM (inactive),> 100 µM (inactive),> 100 µM (inactive),
C(=N\c1ccc(-c2cc(-c3ccccc3)nc3ccc4ccccc4c23)cc1)/c1ccccc1,18.1 µM (inactive),9.48 µM (inactive),4.79 µM (inactive),10.8 µM (inactive),18.1 µM (inactive),11.2 µM (inactive),26 µM (inactive),7.48 µM (inactive),14.1 µM (inactive),8.39 µM (inactive),18.5 µM (inactive),,37.3 µM (inactive),19.9 µM (inactive),30.3 µM (inactive)
CC1C(c2ccc(N(C)C)cc2)c2cc3c(cc2OC1N1CCCC1)OCO3 (stereo not given),64.6 µM (inactive),28 µM (inactive),32.5 µM (inactive),47.2 µM (inactive),31.9 µM (inactive),,70.3 µM (inactive),66.8 µM (inactive),> 72.8 µM (inactive),63.1 µM (inactive),48.3 µM (inactive),54.3 µM (inactive),> 65.8 µM (inactive),38.2 µM (inactive),
C1=CN2C[n+]3ccc4ccccc4c3N=C2c2ccccc21,7.62 µM (inactive),2.52 µM (inactive),1.24 µM (inactive),1.85 µM (inactive),2.72 µM (inactive),6.08 µM (inactive),4.59 µM (inactive),2.54 µM (inactive),,2.47 µM (inactive),2.11 µM (inactive),0.671 µM (active),3.74 µM (inactive),,12.2 µM (inactive)
CC1(C)Oc2ccc3c(=O)cc(-c4ccc(F)cc4)oc3c2C1C(=O)O (stereo not given),> 100 µM (inactive),,> 100 µM (inactive),,> 100 µM (inactive),> 100 µM (inactive),> 100 µM (inactive),> 100 µM (inactive),,> 100 µM (inactive),,> 100 µM (inactive),> 100 µM (inactive),,> 100 µM (inactive)
CO[C@@]12C[C@@H](C)C3=CCC(C)=C3CC1=C(C)C(=O)O2,> 100 µM (inactive),50.8 µM (inactive),53.3 µM (inactive),> 100 µM (inactive),> 100 µM (inactive),> 100 µM (inactive),> 100 µM (inactive),> 100 µM (inactive),> 100 µM (inactive),,> 100 µM (inactive),,> 100 µM (inactive),> 100 µM (inactive),68.7 µM (inactive)
C=C(CC[C@@H](C)[C@H]1CC[C@@]2(C)C3=C(CC[C@]12C)[C@@]1(C)CC[C@H](O)[C@@H](C)C1CC3)C(C)C (stereo not given in full),1.23 µM (inactive),0.361 µM (active),0.273 µM (active),1.26 µM (inactive),1.17 µM (inactive),1.5 µM (inactive),1.61 µM (inactive),,1.28 µM (inactive),1.44 µM (inactive),2.17 µM (inactive),,2.35 µM (inactive),0.906 µM (active),1.6 µM (inactive)
